Experimental data as given in patent US20260216215A1, “COMPOSITIONS AND METHODS FOR TREATING OR PREVENTING PAIN OR OTHER DISORDERS” (priority 2022, published 2026).

Experiments:
[1] = system: menstrual pain; experiment: Comparison of VAS scores for CBD only, CBG only, PEA only and combination vaginal suppositories (Example 2); type: in vivo, human; conditions: vaginal suppository; for Magnitude of pain reduction from baseline: VAS points
Description: Specifically, the formulations were individually/separately administered, with each single formulation being administered on a separate day of the patient's menstrual period.
Comparison of visual analogue pain scores (VAS scores) for CBD only, CBG only, PEA only and CBD+CBG+PEA combinations delivered using vaginal suppositories.

[2] = system: neuropathic pain; conditions: purified compound; thermal and mechanical hyperalgesia and mechanical allodynia; cited from earlier work
[3] = system: inflammation in experimental rat model; conditions: versus Diclofenac (100 mg/kg), p<0.05; cited from earlier work
[4] = cited from earlier work
[5] = system: chemical nociception; conditions: not blocked by naloxone; cited from earlier work

Row | Compound | Magnitude of pain reduction from baseline [1] | Duration of effect [1] [h] | Onset of effect [1] [min] | VAS at max effect [1] | further results
1 | C=C(C)[C@@H]1CCC(C)=C[C@H]1c1c(O)cc(CCCCC)cc1O [CBD 50 mg, Cannabidiol] | 2 | 5 | 20 | 5 | Relief of neuropathic pain [2]: partially relieve neuropathic pain
2 | CCCCCc1cc(O)c(C/C=C(\C)CCC=C(C)C)c(O)c1 [CBG 50 mg, Cannabigerol] | 0 |  |  | 8 | 
3 | COc1cc(CNC(=O)CCCC/C=C/C(C)C)ccc1O [CPF, capsaicin] |  |  |  |  | Anti-inflammatory effects [3]: comparable to diclofenac
4 | CCCCCCCCCCCCCCCC(=O)NCCO [PEA 250 mg, N-Palmitoylethanolamide] | 2 | 6 | 30 | 5 | 
5 | CC(C)=C1CC[C@@H](C)CC1=O [PUL, (R)-5-Methyl-2-(1-methylethylidine) cyclohexanone] |  |  |  |  | Miscibility with organic solvents ([4]; ethanol, diethyl ether and chloroform): miscible; Solubility in water ([4]; water): practically insolubile; Chemical nociception in first and second phase of the formalin test [5]: significantly inhibited
